Measurements from patent publication US20260159561A1 (MyNeuroCure Oy, priority 2017, published 2026).

B1: MANF: mesencephalic astrocyte-derived neurotrophic factor; mature human MANF, SEQ ID NO: 9, 158 amino acids (protein, listed as Homo sapiens)
chain: LRPGDCEVCISYLGRFYQDLKDRDVTFSPATIENELIKFCREARGKENRLCYYIGATDDAATKIINEVSKPLAHHIPVEKICEKLKKKDSQICELKYDKQIDLSTVDLKKLRVKELKKILDDWGETCKGCAEKSDYIRKINELMPKYAPKAASARTDL

Key:
[1] = test system: ER stressed SCG neurons; test: Survival of tunicamycin ER-stressed SCG neurons microinjected with recombinant protein; format: cell-based, mouse; conditions: recombinant protein microinjected into the cytoplasm; tunicamycin 2 μM; counted after 3 days
Method: (§1) Non-neuronal cells were removed by extensive preplating. Almost pure neurons were cultured in polyornithine/laminin (Sigma)-coated 35-mm plastic dishes in the small-size standard microislands in the Neurobasal medium and B27 supplement (Invitrogen/Gibco) in the presence of 30 ng/ml mouse nerve growth factor (NGF) (Promega) for 5-6 days. NGF was deprived by extensive washing and addition of the function-blocking anti-NGF antibodies (Roche). The neurons were pressure-microinjected with special neuronal microinjection equipment (Hellman et al., 2011; Hamner et al., 2001; Lindholm et al., 2002; Sun et al., 2001; Yu et al., 2003)(Sun et al., 2001; Sun et al., 2003). For the survival assay, all neurons on the microislands were counted in the beginning (initial number) and the end (three days) of the experiment and expressed as % of initial.
(§2) Microinjection of the sympathetic neurons was performed as described earlier (Yu, L. Y., Jokitalo, E., Sun, Y. F., Mehlen, P., Lindholm, D., Saarma, M., and Arumäe, U. (2003) J. Cell Biol. 163, 987-997). […] Next day tunicamycin (2 μM) was added, and after 3 days the living fluorescent neurons were counted. Living fluorescent (EGFP-expressing or Dextran Texas Red-containing) neurons were “blindly” counted three days later and expressed as percent of initial living fluorescent neurons counted 2-3 hours after microinjection. […]

[2] = test system: rats in the 6-OHDA model of Parkinson's disease; conditions: applied before the toxin; cited from earlier work
[3] = test system: Huntington's disease rat model (quinolinic acid); test: Quinolinic acid Huntington's disease rat model, rotarod and grip strength; format: in vivo; conditions: single intrastriatal injection 2 weeks after QA, equimolar to CDNF 10 micrograms, vs QA+PBS
From the text: Adult Wistar rats received a single, unilateral intrastriatal injection of quinolinic acid (QA) 225 nmol into coordinates: A/P+0.7; L/M+2.8; D/V −6.0. Quinolinic acid is a toxin that induces striatal neuron death by an excitotoxic process. […] Rats were randomized to groups before the treatments started. Rotarod and grip strength tests were done weekly.

[4] = test system: ER stressed superior cervical ganglia (SCG) sympathetic neurons; test: Survival of tunicamycin ER-stressed SCG neurons microinjected with expression plasmids; format: cell-based, mouse; conditions: expressed from microinjected plasmids; tunicamycin 2 μM; counted after three days
Method: as §1, §2

[5] = test system: rat PC6 cells; test: Internalization of iodinated proteins into PC6.3 cells; format: cell-based; conditions: PC6 cells with or without thapsigargin, 90 min, acid wash
Method: Rat PC6.3 pheochromocytoma cells were grown on the 24 well plate in DMEM culture with 10% FCS and 5% horse serum. […] 90 min. The cells were put on ice, washed once with 0.5 ml of the ice cold media. Then cells were transferred to Eppendorf tubes and washed once with 0.2M acetic acid, 0.5M NaCl, pH 2.8. After centrifugation at 1000 g for 10 min cells were dissolved in 0.5 ml of 0.5 N NaOH and counted in Wizard 3 1480 Automatic Gamma Counter (Perkin Elmer, Wallac).

[6] = test system: E14 dopamine neurons; test: Internalization of iodinated proteins into dopamine neurons; format: cell-based, mouse; conditions: 30,000 cpm iodinated protein, 37° C., 2 hr, acid wash
Method: 2 hr. The cells were transferred to ice and washed once with 0.5 ml of the ice cold media. Then cells were transferred to Eppendorf tubes and washed at 4° C. once with 0.2M acetic acid, 0.5M NaCl, pH 2.8.

Row | Molecule | living fluorescent neurons, percentage of initial neurons [1] | 6-OHDA-induced behavioral and histological symptoms [2] | rotarod latency to fall (motor behavior) [3] | living fluorescent neurons, percentage of initial neurons [4] | radioactivity inside the cells (cell membrane penetration) [5] | radioactivity inside the cells (internalization) [6]
1 | CDNF: cerebral dopamine neurotrophic factor; mature human CDNF, SEQ ID NO: 7, 161 amino acids | rescue ER stressed SCG neurons | potently prevent the 6-OHDA-induced behavioral and histological symptoms | not CDNF improved motor behavior statistically significantly | rescue ER stressed superior cervical ganglia (SCG) sympathetic neurons | – | –
2 | ^125I-CDNF: full length CDNF iodinated with 125I-Na using the lactoperoxidase method | – | – | – | – | not full length iodinated CDNF penetrate cell membrane | not ^125I-CDNF is efficiently internalized
3 | B1 | – | potently prevent the 6-OHDA-induced behavioral and histological symptoms | – | – | – | –
